The supplement of paper PMC10307832

Legend:
Test in all cases: relative viability (nuclei count vs DMSO), 5 days (fraction); higher = more cells survive
AZD5582 + Olaparib = compound: C[C@@H](C(=O)N[C@@H](C1CCCCC1)C(=O)N2CCC[C@H]2C(=O)N[C@@H]3[C@@H](CC4=CC=CC=C34)OCC#CC#CCO[C@@H]5CC6=CC=CC=C6[C@@H]5NC(=O)[C@@H]7CCCN7C(=O)[C@H](C8CCCCC8)NC(=O)[C@H](C)NC)NC [AZD5582] + O=C(c1cc(Cc2n[nH]c(=O)c3ccccc23)ccc1F)N1CCN(C(=O)C2CC2)CC1 [Olaparib] (partner 8 µM)
Summary of the method: (§1)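 For relative viability, nuclei counts in treated wells were divided by those in vehicle wells. Lung cancer cell lines had been pin-tool dosed in 1536-well plates the day after seeding and cultured for 5 days, then fixed and stained in one step (final 0.05% Triton X-100, 1% formaldehyde, 1 ug/ml Hoechst) and imaged at 4×. Doses were one drug alone or a fixed anchor-drug dose plus five library-drug doses (not always all listed) in √10 steps, and values are duplicate-plate medians.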

[1] = compound: Cn1nnc2c(C(N)=O)ncn2c1=O [Temozolomide] + CS(=O)(=O)N1CCN(Cc2cc3nc(-c4cccc5[nH]ncc45)nc(N4CCOCC4)c3s2)CC1 [Pictilisib] (partner 1 µM)
Summary of the method: as §1

[2] = compound: Cn1nnc2c(C(N)=O)ncn2c1=O [Temozolomide] + O=C(CCCCCCC(=O)Nc1ccccc1)NO [Vorinostat] (partner 1 µM)
Summary of the method: as §1

AZD5582 + Pemetrexed = compound: C[C@@H](C(=O)N[C@@H](C1CCCCC1)C(=O)N2CCC[C@H]2C(=O)N[C@@H]3[C@@H](CC4=CC=CC=C34)OCC#CC#CCO[C@@H]5CC6=CC=CC=C6[C@@H]5NC(=O)[C@@H]7CCCN7C(=O)[C@H](C8CCCCC8)NC(=O)[C@H](C)NC)NC [AZD5582] + Nc1nc2[nH]cc(CCc3ccc(C(=O)N[C@@H](CCC(=O)O)C(=O)O)cc3)c2c(=O)[nH]1 [Pemetrexed] (partner 0.2 µM)
Summary of the method: as §1

Row | Cell Line | relative viability (AZD5582 + Olaparib; first compound 0.01581 µM) | relative viability (AZD5582 + Olaparib; first compound 0.05 µM) | relative viability ([1]; first compound 0.2 µM) | relative viability ([1]; first compound 0.6325 µM) | relative viability ([1]; first compound 2 µM) | relative viability ([1]; first compound 6.325 µM) | relative viability ([1]; first compound 20 µM) | relative viability ([2]; first compound 0.2 µM) | relative viability ([2]; first compound 0.6325 µM) | relative viability ([2]; first compound 2 µM) | relative viability ([2]; first compound 6.325 µM) | relative viability ([2]; first compound 20 µM) | relative viability (AZD5582 + Pemetrexed; first compound 0.001581 µM) | relative viability (AZD5582 + Pemetrexed; first compound 0.005 µM) | relative viability (AZD5582 + Pemetrexed; first compound 0.01581 µM) | relative viability (AZD5582 + Pemetrexed; first compound 0.05 µM) | relative viability (AZD5582 + Olaparib; first compound 0.001581 µM) | relative viability (AZD5582 + Olaparib; first compound 0.005 µM)
1 | RERF-LC-KJ | 0.852 | 0.691 | 0.625 | 0.564 | 0.557 | 0.501 | 0.467 | 0.602 | 0.7 | 0.756 | 0.646 | 0.663 | 0.154 | 0.235 | 0.457 | 0.289 | – | –
2 | SK-LU-1 | 0.466 | 0.142 | 0.688 | 0.62 | 0.544 | 0.295 | 0.281 | 0.89 | 0.769 | 0.713 | 0.505 | 0.421 | 0.73 | 0.5 | 0.978 | 0.285 | 0.353 | 0.274
3 | SK-MES-1 | 0.792 | 0.605 | 0.279 | 0.362 | 0.424 | 0.331 | 0.282 | 1.41 | 1.12 | 1.11 | 1.19 | 1.12 | 0.904 | 1.01 | 0.975 | 0.939 | 0.653 | 0.515
4 | SW 1573 | 0.628 | 0.684 | 0.595 | 0.517 | 0.517 | 0.483 | 0.428 | 0.794 | 1.04 | 1.08 | 0.803 | 0.633 | 0.805 | 0.774 | 0.954 | 0.821 | 0.376 | 0.523
5 | UMC-11 | 0.399 | 0.381 | 1.08 | 0.917 | 0.893 | 0.729 | 0.442 | 0.388 | 0.415 | 0.423 | 0.391 | 0.264 | 0.73 | 0.848 | 0.755 | 0.864 | 0.369 | 0.375
